Measured values reported in patent publication US20140212441A1, “PHARMACEUTICAL COMPOSITION FOR INFLAMMATORY DISEASES, ALLERGIC DISEASES AND AUTOIMMUNE DISEASES” (R-TECH UENO, LTD., priority 2011, published 2014).
pIC50: −log10 of the molar value.

How the values were obtained:
[1] = test system: PiCl-induced atopic dermatitis model mice (NC/NgaTndCrlj, male); assay: Atopic dermatitis mouse model: dermatitis score; assay type: in vivo; set-up: key to Dermatitis score (average ± standard error): sum of grades of five findings, each 0 (subclinical) to 3 (severe)
Description: (§1) An atopic dermatitis mouse model (NC/NgaTndCrlj, male) induced by picryl chloride (PiCl) was used to evaluate effects against dermal inflammation and hair conditions on the skin suffering from dermal inflammation.
(§2) PiCl-induced atopic dermatitis model mice were prepared by applying a PiCl solution to the sheared abdomen and footpad for sensitization and applying the PiCl solution to the sheared back and the right and left ears (both the inside and outside thereof) once a week for 5 weeks starting from the 5th day after sensitization for repeated induction. In each group, administration was performed once a day for 28 days starting from the 18th day after PiCl sensitization. Compound A and 0.1% tacrolimus ointment were openly applied to a ca. 3 cm×ca. 5 cm region of the neck and back of the model animals. The animals of the 5th group (the group of combined administration of prednisolone and 0.6 w/v % compound A) were orally administered 1 mg/kg of prednisolone and then transdermally administered 0.6 w/v % compound A. The animals of the 6th group (the group of combined administration of 0.1% tacrolimus ointment and 0.6 w/v % compound A) were administered 0.1% tacrolimus ointment at or beyond 3.5 hours after administration of 0.6 w/v % compound A.
(§3) Each evaluation used a dermatitis score and a hair restoration score. The scores were obtained by grading dermatitis and hair growth/hair restoration conditions at Day 1, 8, 15, 22, and 29 (the next day after final administration) of administration, according to the following criteria.
<Dermatitis Findings> The dermatitis score of each individual was expressed as the sum of grades (0: subclinical to 3: severe) of the following dermatitis findings (1) to (5).
(2) Flare/bleeding: Flare and bleeding symptoms in the induction site were observed.
(3) Edema: The edema of the auricle as the induction site was qualitatively observed.
An effect against atopic dermal inflammation was evaluated using the dermatitis score at Day 8 of administration.

[2] = test system: PiCl-induced atopic dermatitis model mice (NC/NgaTndCrlj, male); assay: Atopic dermatitis mouse model: hair restoration score; assay type: in vivo; set-up: key to Hair restoration score (average ± standard error): 0 = no hair growth, 3 = hair restoration in 75-100% of site
Description: as §1, §2, §3
<Hair Growth/Hair Restoration Condition> A region received transdermal administration (a ca. 3 cm×ca. 5 cm region of the neck and back) of each individual was observed.
0: No hair growth or hair restoration is noted in the observation site.
1: Hair growth and hair restoration are noted in 0<25% of the observation site.
2: Hair growth and hair restoration are noted in 25≦75% of the observation site.
3: Hair growth and hair restoration are noted in 75≦100% of the observation site.
Hair condition in the skin suffering from dermal inflammation was evaluated using hair restoration scores at Day 15, 22 and 29 of administration.

[3] = test system: LPS-stimulated mouse B cell proliferation; assay: B cell proliferation suppression test; assay type: cell-based; settings: LPS-stimulated Balb/c spleen B lymphocytic cells, 3H thymidine uptake
Description: B lymphocytic cells (2×10^6/mL) isolated from the spleen of Balb/c mice (weighing 17±1 g) were cultured in a pH 7.4 AIM-V medium containing a given concentration of compound A and […] of a lipopolysaccharide (LPS) at 37° C. for 24 hours, and, after added with 120 nM ^3H thymidine, further cultured for 16 hours. The cells were collected by filter filtration, and the uptake of thymidine into the cells was measured using a liquid scintillation counter to evaluate the cell proliferation-suppressing effect and calculate IC50.

[4] = test system: Con A-stimulated mouse T cell proliferation; assay: T cell proliferation suppression test; assay type: cell-based; settings: Con A-stimulated Balb/c thymus T lymphocytic cells, 3H thymidine uptake
Description: T lymphocytic cells (5×10^6/mL) isolated from the thymus of Balb/c mice (weighing 17±1 g) were cultured in a pH 7.4 AIM-V medium containing a given concentration of compound A and […] of concanavalin A (Con A) at 37° C. for 24 hours, and, after added with 120 nM ^3H thymidine, further cultured for 16 hours. The cells were collected by filter filtration, and the uptake of thymidine into the cells was measured using a liquid scintillation counter to evaluate the cell proliferation-suppressing effect and calculate IC50.

[5] = test system: transcription factor NFAT-1; assay: NF-AT gene transcription suppression test (lac Z reporter, Jurkat cells); assay type: cell-based; settings: Homo sapiens, lac Z under NFAT-1 site, A23187 + PMA, β-galactosidase activity
Description: (§4) Human T lymphocyte Jurkat cells transformed with a β-galactosidase gene (lac Z) having a DNA binding site for the transcription factor NFAT-1 in its transcriptional control region (2.3×10^6/mL) were cultured together with a given concentration of compound A in a pH 7.4 RPMI-1640 medium at 37° C. for 20 minutes, and, after added with […] A23187 (calcium ionophore) and 50 ng/mL PMA (Phorbol 12-myristate 13-acetate), further cultured for 4 hours. The activity of β-galactosidase was measured by conversion from FDG (fluorescein-di-beta-D-galactopyranoside) to fluorescein. Fluorescent emission was measured using a SpectroFluor Plus plate reader and IC50 was calculated.

[6] = test system: transcription factor NF-κB; assay: NF-κB gene transcription suppression test (lac Z reporter, Jurkat cells); assay type: cell-based; settings: Homo sapiens, lac Z under NF-κB site, A23187 + PMA, β-galactosidase activity
Description: as §4, with “NF-κB” for “NFAT-1”

[7] = 0.08 w/v % Compound A transdermal once a day, Day 15
[8] = 0.08 w/v % Compound A transdermal once a day, Day 22
[9] = 0.08 w/v % Compound A transdermal once a day, Day 29
[10] = 0.3 w/v % Compound A transdermal once a day, Day 1
[11] = 0.3 w/v % Compound A transdermal once a day, Day 15
[12] = 0.3 w/v % Compound A transdermal once a day, Day 22
[13] = 0.3 w/v % Compound A transdermal once a day, Day 29
[14] = 0.6 w/v % Compound A transdermal once a day, Day 1
[15] = 0.6 w/v % Compound A transdermal once a day, Day 15
[16] = 0.6 w/v % Compound A transdermal once a day, Day 22

CCCCCCCC1(CC[C@@H]2[C@@H](C/C=C\CCCC(=O)OC(C)C)[C@@H](O)C[C@H]2O)OCCO1 [Compound A, isopropyl (Z)-7-[(1R,2R,3R,5S)-2-(3,3-ethylenedioxydecyl)-3,5-dihydroxycyclopentyl]hept-5-enoate]
Dermatitis score (average ± standard error) ([1]; 0.08 w/v % Compound A transdermal once a day, Day 1 of administration): 3.8 ± 0.4
Dermatitis score (average ± standard error) ([1]; 0.08 w/v % Compound A transdermal once a day, Day 8): 3.7 ± 0.6
Dermatitis score (average ± standard error) [1, 7]: 6.2 ± 0.7
Dermatitis score (average ± standard error) [1, 8]: 8.0 ± 0.5
Dermatitis score (average ± standard error) [1, 9]: 9.0 ± 0.7
Dermatitis score (average ± standard error) [1, 10]: 3.3 ± 0.5
Dermatitis score (average ± standard error) ([1]; 0.3 w/v % Compound A transdermal once a day, Day 8): 3.5 ± 0.4
Dermatitis score (average ± standard error) [1, 11]: 5.5 ± 0.5
Dermatitis score (average ± standard error) [1, 12]: 7.5 ± 0.7
Dermatitis score (average ± standard error) [1, 13]: 8.1 ± 0.5
Dermatitis score (average ± standard error) [1, 14]: 3.6 ± 0.3
Dermatitis score (average ± standard error) [1, 15]: 6.0 ± 0.7
Dermatitis score (average ± standard error) [1, 16]: 8.3 ± 0.4
Dermatitis score (average ± standard error) ([1]; 0.6 w/v % Compound A transdermal once a day, Day 29): 9.3 ± 0.6
progression of early dermatitis ([1]; compared to the group administered with the base for compound A, Day 8 dermatitis score): tendency to be suppressed
Hair restoration score (average ± standard error) ([2]; 0.08 w/v % Compound A transdermal once a day, Day 1): 0.0 ± 0.0
Hair restoration score (average ± standard error) [2, 7]: 2.2 ± 0.1
Hair restoration score (average ± standard error) [2, 8]: 1.4 ± 0.2
Hair restoration score (average ± standard error) [2, 9]: 1.5 ± 0.2
Hair restoration score (average ± standard error) [2, 10]: 0.0 ± 0.0
Hair restoration score (average ± standard error) [2, 11]: 2.1 ± 0.2
Hair restoration score (average ± standard error) [2, 12]: 1.6 ± 0.2
Hair restoration score (average ± standard error) [2, 13]: 1.9 ± 0.2
Hair restoration score (average ± standard error) [2, 14]: 0.0 ± 0.0
Hair restoration score (average ± standard error) [2, 15]: 1.8 ± 0.2
Hair restoration score (average ± standard error) [2, 16]: 1.5 ± 0.2
Hair restoration score (average ± standard error) ([2]; 0.6 w/v % Compound A transdermal once a day, Day 29, P < 0.05 vs Day 22): 2.0 ± 0.0
change in hair restoration score (improvement in the hair loss) ([2]; Day 29 of administration compared to Day 22): observed in a dose-dependent manner
pIC50 [3]: 5.03
pIC50 [4]: 5.20
pIC50 [5]: 5.88
pIC50 [6]: 5.88
